Our source for the Ratio IC50, IC50 and inhibition values is ChEMBL document CHEMBL2177061, “Factors influencing the specificity of inhibitor binding to the human and malaria parasite dihydroorotate dehydrogenases” (J Med Chem, 2012).

Residue numbers refer to the chain shown, from its start. A value given as a limit tells only on which side of the number the result lay.

The species entered for assay [1] is Homo sapiens. The experiment in a line: Ratio of IC50 for human dihydrofolate dehydrogenase Y147A mutant to IC50 for human wild type dihydrofolate dehydrogenase.
Assay [2] is filed under the species Homo sapiens. Nature of the assay: Ratio of IC50 for human dihydrofolate dehydrogenase Y147F mutant to IC50 for human wild type dihydrofolate dehydrogenase.
In assay [3] the target is Dihydroorotate dehydrogenase (quinone), mitochondrial (Homo sapiens, UniProt Q02127). The experiment in a line: Inhibition of human […] dehydrogenase expressed in Escherichia coli BL21(DE3) using […] as substrate by DCIP-based colorimetric analysis.
Dihydroorotate dehydrogenase (quinone), mitochondrial, sequence (Q02127 whole entry): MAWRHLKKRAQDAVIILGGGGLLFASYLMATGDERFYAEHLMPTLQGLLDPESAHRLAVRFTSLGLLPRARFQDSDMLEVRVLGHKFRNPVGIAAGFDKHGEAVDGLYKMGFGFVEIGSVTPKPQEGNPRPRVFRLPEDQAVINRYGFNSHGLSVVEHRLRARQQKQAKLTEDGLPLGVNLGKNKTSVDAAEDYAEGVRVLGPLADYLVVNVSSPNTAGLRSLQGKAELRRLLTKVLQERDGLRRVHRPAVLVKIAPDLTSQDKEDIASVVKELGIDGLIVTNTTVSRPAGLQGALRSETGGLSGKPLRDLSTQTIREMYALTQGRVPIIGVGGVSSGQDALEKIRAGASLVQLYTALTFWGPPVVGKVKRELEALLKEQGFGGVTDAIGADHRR
In assay [4] the test system is T1, Dihydroorotate dehydrogenase (quinone), mitochondrial (Plasmodium falciparum (isolate 3D7)), Q08210 [C276Y].
T1 sequence (whole entry): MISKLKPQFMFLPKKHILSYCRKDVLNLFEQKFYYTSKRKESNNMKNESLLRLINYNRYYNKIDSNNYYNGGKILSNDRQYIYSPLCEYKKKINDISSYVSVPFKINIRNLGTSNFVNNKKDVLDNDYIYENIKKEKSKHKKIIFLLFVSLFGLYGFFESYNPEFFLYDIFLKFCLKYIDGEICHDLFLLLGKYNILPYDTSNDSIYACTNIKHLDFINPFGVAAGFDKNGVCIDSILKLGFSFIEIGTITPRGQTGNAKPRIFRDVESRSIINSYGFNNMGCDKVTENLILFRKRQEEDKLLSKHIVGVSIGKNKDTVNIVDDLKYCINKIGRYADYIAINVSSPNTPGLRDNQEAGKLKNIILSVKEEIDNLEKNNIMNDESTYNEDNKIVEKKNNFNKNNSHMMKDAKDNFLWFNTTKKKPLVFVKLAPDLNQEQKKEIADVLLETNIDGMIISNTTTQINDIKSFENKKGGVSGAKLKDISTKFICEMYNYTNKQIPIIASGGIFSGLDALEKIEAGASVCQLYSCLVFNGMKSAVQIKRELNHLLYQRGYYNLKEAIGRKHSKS
The experiment in a line: Inhibition of Plasmodium falciparum […] dehydrogenase C276Y mutant expressed in Escherichia coli BL21(DE3) using […] as substrate at 100 uM by DCIP-based colorimetric analysis.

The test system of assay [5] is T2, Dihydroorotate dehydrogenase (quinone), mitochondrial (Plasmodium falciparum (isolate 3D7)), Q08210 [C276A].
T2 sequence (whole entry): T1 sequence (whole entry) with Y276A
The experiment in a line: Inhibition of Plasmodium falciparum […] dehydrogenase C276A mutant expressed in Escherichia coli BL21(DE3) using […] as substrate at 100 uM by DCIP-based colorimetric analysis.

The species entered for assay [6] is Homo sapiens. Nature of the assay: Ratio of IC50 for human dihydrofolate dehydrogenase Y147C mutant to IC50 for human wild type dihydrofolate dehydrogenase.
The test system of assay [7] is T3, Dihydroorotate dehydrogenase (quinone), mitochondrial (Plasmodium falciparum (isolate 3D7)), Q08210 [C276F].
T3 sequence (whole entry): T1 sequence (whole entry) with Y276F
The experiment in a line: Inhibition of Plasmodium falciparum […] dehydrogenase C276F mutant expressed in Escherichia coli BL21(DE3) using […] as substrate at 100 uM by DCIP-based colorimetric analysis.

Assay [8] concerns the target T4, Dihydroorotate dehydrogenase (Plasmodium falciparum, UniProt Q54A96).
T4 sequence (Q54A96 whole entry): T1 sequence (whole entry) with Y276C
The experiment in a line: Inhibition of Plasmodium falciparum […] dehydrogenase expressed in Escherichia coli BL21(DE3) using […] as substrate by DCIP-based colorimetric analysis.

What is called IC50 is the concentration that inhibits the measured activity by half. A higher IC50 goes with lower potency. For orientation: inhibition means the drop in the measured response relative to a control, in per cent. As for `CCc1cc(O)n2nc(SCc3cc(Cl)ccc3Cl)nc2n1`, the Ratio IC50 amounted to 16 in the assay filed under Homo sapiens [1], 1.9 in the assay listed under Homo sapiens [2] and 9 in the assay filed under Homo sapiens [6]. Further, the figures for the concentration for half-maximal inhibition (IC50) in assay [3] and in assay [8] were 13 nM and > 100000 nM, respectively. For the same compound, the inhibition in assay [4], in assay [5] and in assay [7] was < 50% in each case.
